Source: patent US20020086278A1, “CHROMOGENIC MEDIA CONTAINING BLOOD OR HEMIN” (priority 1999, published 2002)
Where two headings read alike, the source gives them in different places.

Key:
[1] = Color contrast of chromogen on blood plate
[2] = Precipitate of chromogen on pre-plated media; assay type: physicochemical; conditions: 50 μl DMSO solution on pre-plated media
Experimental: 50 μl of each chromogen solution was added to the surface of each of the following pre-plated media (one chromogen solution per plate):
The solution was dispersed using a spreader and allowed to dry 3-4 hours in a hood.

[3] = tested on: Aeromonas hydrophilia (aehy); experiment: Example 3: colony color on chromogenic TSA II with 5% sheep blood (chromogen in medium); assay type: cell-based; conditions: for Colony Color: CO2, 21 h
[4] = tested on: Branhamella catarrhalis (brca); experiment: as above; assay type: cell-based; conditions: for Colony Color: CO2, 21 h
Candida albicans (caal) = experiment: as above; assay type: cell-based; conditions: for Colony Color: caal 10231, 24 h
[5] = tested on: Citrobacter freundii (cifr); experiment: as above; assay type: cell-based
[6] = tested on: Entercoccus faecalis (enfa); experiment: as above; assay type: cell-based
E. faecium (enfu) = experiment: as above; assay type: cell-based; conditions: for Colony Color: enfu 49032, 21 h
[7] = tested on: E. coli (non-O157) (esco); assay type: cell-based
[8] = tested on: Klebsiella pneumoniae (klpn); experiment: Example 3: colony color on chromogenic TSA II with 5% sheep blood (chromogen in medium); assay type: cell-based
[9] = tested on: Pseudomonas aeruginosa (psae); experiment: as above; assay type: cell-based; conditions: for Colony Color: CO2, 21 h
Salmonella spp. (sasp) = assay type: cell-based; conditions: for Colony Color: CO2, 21 h
[10] = tested on: Serratia marcescens (sema); experiment: Example 3: colony color on chromogenic TSA II with 5% sheep blood (chromogen in medium); assay type: cell-based
[11] = tested on: Streptococcus agalactiae (stag); experiment: as above; assay type: cell-based
[12] = tested on: Staphylococcus aureus (stau); experiment: as above; assay type: cell-based
[13] = tested on: Staphylococcus Coag Neg (step); experiment: as above; assay type: cell-based; conditions: for Colony Color: 21 h
S. milleri (stmi) = experiment: as above; assay type: cell-based
S. pneumoniae (stpn) = experiment: as above; assay type: cell-based
S pyogenes (stpy) = experiment: as above; assay type: cell-based; conditions: for Colony Color: 21 h
55 strains = experiment: Example 3: color, hemolytic activity and growth over all 55 strains; assay type: cell-based; conditions: chromogenic TSA II
Source text: Steers, E. et al., Antibiot.

cakr 34135 = experiment: Example 3: colony color on chromogenic TSA II with 5% sheep blood (chromogen in medium); assay type: cell-based; conditions: CO2, 21 h
milu 9341 = experiment: as above; assay type: cell-based; conditions: CO2, 21 h
S. epidermidis 12228 = experiment: Example 1: growth and colony color on plates surface-spread with chromogen; assay type: cell-based; conditions: Summary of Table I; S. epidermidis 12228
[14] = tested on: Staphylococcus aureus 25923; experiment: as above; assay type: cell-based; conditions: S. aureus 25923
[15] = tested on: Streptococcus pneumoniae 6303; experiment: as above; assay type: cell-based
[16] = tested on: Branhamella catarrhalis 25238; experiment: as above; assay type: cell-based; conditions: for Growth: B. catt 25258
Group B Strep. 12386 = experiment: as above; assay type: cell-based; conditions: for Growth: Group B Strep 12386
N. gonorrhoeae 35201 = experiment: as above; assay type: cell-based; conditions: Summary of Table I; N. gonorrhoeae 35201
[17] = tested on: Gardnerella vaginalis 14019; experiment: as above; assay type: cell-based; conditions: Summary of Table I; G. vaginalis 14014
N. sicca 29193 [18] = experiment: as above; assay type: cell-based
S. aureus 25923 = experiment: Example 2: effect of incubation conditions on colony color formation; assay type: cell-based, Staphylococcus aureus
N. sicca 29193 [19] = experiment: as above; assay type: cell-based
[20] = tested on: bacterial test strains of Example 1; experiment: Example 1: inhibitory effect over all test strains; assay type: cell-based; conditions: Example 1, all test strains
[21] = chromogenic TSA II with 5% Sheep Blood, 0.1 g/l, 3 strains tested
[22] = chromogenic TSA II with 5% Sheep Blood, 0.1 g/l, 2 strains tested
[23] = chromogenic TSA II with 5% Sheep Blood, 0.1 g/l, 6 strains tested
[24] = chromogenic TSA II with 5% Sheep Blood, 0.1 g/l, 1 strain tested
[25] = chromogenic TSA II with 5% Sheep Blood, 0.1 g/l, 5 strains tested

Oc1c[nH]c2ccc(Br)c(Cl)c12 [5-Bromo-4-chloro-3-indoxyl]
Absorption max (nm) [1]: 615 nm

O=C([O-])[C@H]1O[C@@H](Oc2c[nH]c3ccc(Br)c(Cl)c23)[C@H](O)[C@@H](O)[C@@H]1O.[Na+] [X-Glucuro(s), 5-Br-4-Cl-3-indolyl-β-D-glucuronide (sodium salt)]
Precipitate when spread / placed on the plated media [2]: remained clear

Oc1c[nH]c2cc(Cl)ccc12 [6-chloro-3-indoxyl]
Absorption max (nm) [1]: 540 nm

O=S(=O)([O-])Oc1c[nH]c2ccc(Br)c(Cl)c12.[K+] [X-Sulf, 5-Br-4-Cl-3-indolyl-sulfate (Potassium salt)]
Colony Color ([3]; aehy 7965): 0 | Colony Color ([3]; aehy 7966): 0 | Colony Color ([3]; aehy 49847): 0 | Colony Color (Summary) [3, 21]: 0 | Colony Color ([4]; brca 25238): 0 | Colony Color ([4]; brca 25240): 0 | Colony Color (Summary) [4, 22]: 0 | Colony Color (Candida albicans (caal); CO2): 0 | Colony Color (Candida albicans (caal); air): 0 | Colony Color (Summary) (Candida albicans (caal); [22]): 0 | Colony Color ([5]; One strain of Citrobacter): grey blue | Colony Color (Summary) [5, 22]: + | Colony Color ([5]; cifr 8454, CO2, 21 h): 0 | Colony Color ([5]; cifr 33128, CO2, 21 h): gb | Colony Color (Summary) [6, 23]: 0 | Colony Color ([6]; enfa 597, CO2, 21 h): 0 | Colony Color ([6]; enfa 597, air, 21 h): 0 | Colony Color ([6]; enfa 10741, CO2, 21 h): 0 | Colony Color ([6]; enfa 10741, air, 21 h): 0 | Colony Color ([6]; enfa 12953, CO2, 21 h): 0 | Colony Color ([6]; enfa 12953, air, 21 h): 0 | Colony Color ([6]; enfa 14506, CO2, 21 h): 0 | Colony Color ([6]; enfa 14506, air, 21 h): 0 | Colony Color ([6]; enfa 29212, CO2, 21 h): 0 | Colony Color ([6]; enfa 29212, CO2, 24 h): 0 | Colony Color ([6]; enfa 29212, air, 21 h): 0 | Colony Color ([6]; enfa 29212, air, 24 h): 0 | Colony Color (Summary) (E. faecium (enfu); [24]): 0 | Colony Color (E. faecium (enfu); CO2): 0 | Colony Color (E. faecium (enfu); air): 0 | Colony Color (Summary) [7, 21]: 0 | Colony Color ([7]; esco 11775, CO2, 21 h): 0 | Colony Color ([7]; esco 25922, CO2, 24 h): 0 | Colony Color ([7]; esco 25922, air, 24 h): 0 | Colony Color ([7]; esco 33605, CO2, 21 h): 0 | Colony Color (Summary) [8, 21]: 0 | Colony Color ([8]; klpn 13883, CO2, 21 h): 0 | Colony Color ([8]; klpn 33495, CO2, 24 h): 0 | Colony Color ([8]; klpn 33495, air, 24 h): 0 | Colony Color ([8]; klpn 33606, CO2, 21 h): 0 | Colony Color (Summary) [9, 21]: 0 | Colony Color ([9]; psae 9027): 0 | Colony Color ([9]; psae 15442): 0 | Colony Color ([9]; psae 33607): 0 | Colony Color (Summary) (Salmonella spp. (sasp); [22]): 0 | Colony Color (Salmonella spp. (sasp); saty 19430): 0 | Colony Color (Salmonella spp. (sasp); satym 14028): 0 | Colony Color (Summary) [10, 24]: 0 | Colony Color ([10]; sema 13880, CO2, 21 h): 0 | Colony Color (Summary) [11, 21]: 0 | Colony Color ([11]; stag 4768, CO2, 21 h): 0 | Colony Color ([11]; stag 4768, air, 21 h): 0 | Colony Color ([11]; stag 12386, CO2, 21 h): 0 | Colony Color ([11]; stag 12386, CO2, 24 h): 0 | Colony Color ([11]; stag 12386, air, 24 h): 0 | Colony Color (Summary) [12, 25]: 0 | Colony Color ([12]; stau 1006, CO2, 21 h): 0 | Colony Color ([12]; stau 1007, CO2, 21 h): 0 | Colony Color ([12]; stau 1008, CO2, 21 h): 0 | Colony Color ([12]; stau 1009, CO2, 21 h): 0 | Colony Color ([12]; stau 25923, CO2, 24 h): 0 | Colony Color ([12]; stau 25923, air, 24 h): 0 | Colony Color (Summary) [13, 25]: 0 | Colony Color ([13]; step 12228, CO2): 0 | Colony Color ([13]; step 12228, air): 0 | Colony Color ([13]; step cdc1, CO2): 0 | Colony Color ([13]; step cdc1, air): 0 | Colony Color ([13]; step cdc2, CO2): 0 | Colony Color ([13]; step cdc2, air): 0 | Colony Color ([13]; step cdc3, CO2): 0 | Colony Color ([13]; step cdc3, air): 0 | Colony Color ([13]; step cdc4, CO2): 0 | Colony Color ([13]; step cdc4, air): 0 | Colony Color (Summary) (S. milleri (stmi); [22]): 0 | Colony Color (S. milleri (stmi); stmi 6249, air, 21 h): 0 | Colony Color (Summary) (S. pneumoniae (stpn); [23]): 0 | Colony Color (S. pneumoniae (stpn); stpn 1259, CO2, 21 h): 0 | Colony Color (S. pneumoniae (stpn); stpn 1260, CO2, 21 h): 0 | Colony Color (S. pneumoniae (stpn); stpn 1628, CO2, 21 h): 0 | Colony Color (S. pneumoniae (stpn); stpn 6303, CO2, 24 h): 0 | Colony Color (S. pneumoniae (stpn); stpn 6303, air, 24 h): 0 | Colony Color (S. pneumoniae (stpn); stpn 6305, CO2, 24 h): 0 | Colony Color (S. pneumoniae (stpn); stpn 6305, air, 24 h): 0 | Colony Color (Summary) (S pyogenes (stpy); [23]): 0 | Colony Color (S pyogenes (stpy); stpy 1027, CO2): 0 | Colony Color (S pyogenes (stpy); stpy 1028, CO2): 0 | Colony Color (S pyogenes (stpy); stpy 1029, CO2): 0 | Colony Color (S pyogenes (stpy); stpy 1030, CO2): 0 | Colony Color (S pyogenes (stpy); stpy 19615, CO2): 0 | Colony Color (S pyogenes (stpy); stpy 19615, air): 0 | Colony Color (S pyogenes (stpy); stpy 49117, CO2): 0 | Colony Color (S pyogenes (stpy); stpy 49117, air): 0 | Colony Color (S pyogenes (stpy); stpy 51339, CO2): 0 | Colony Color (S pyogenes (stpy); stpy 51339, air): 0 | Activity (color) for most organisms (55 strains): inactive | Colony Color (cakr 34135): 0 | Colony Color (milu 9341): 0

5-Br-4-Cl-3-indolyl-caprylate [X-Cap]
Substrates Producing Growth Inhibition (S. epidermidis 12228): X-Cap | Color ([14]; Choc II): turquoise | Substrates Producing Color ([14]; Summary of Table I): X-Cap | Color ([14]; TSA II 5SB): turquoise | Color ([14]; TSA Plain): turquoise | Substrates Producing Growth Inhibition ([15]; Summary of Table I, S. pneumoniae 6303): X-Cap | Growth ([15]; TSA II 5SB, S. pneu: 6303): < | Growth ([16]; Choc II): < | Substrates Producing Growth Inhibition ([16]; Summary of Table I, B. catarrhalis 25238): X-Cap | Growth ([16]; TSA II 5SB): < | Growth (Group B Strep. 12386; Choc II): << | Substrates Producing Growth Inhibition (Group B Strep. 12386; Summary of Table I, Group B Strep. 12386): Slight inhib. w/ X- | Growth (Group B Strep. 12386; TSA II 5SB): < | Substrates Producing Growth Inhibition (N. gonorrhoeae 35201): X-Cap | Substrates Producing Growth Inhibition [17]: X-Cap | Color (N. sicca 29193 [18]; Substrate on Choclate II Agar, N. sicca. 29193): blue | Substrates Producing Color (N. sicca 29193 [18]; Summary of Table I, N. sicca 29193): X-cap | Colony Color (S. aureus 25923): blue (l) | Colony Color (N. sicca 29193 [19]): blue (m) | Inhibitory effect [20]: most inhibitory effect
